Source: US11377441B2, “Covalent inhibitors of KRAS” (Araxes Pharma LLC, priority 2017, dated 2022)

molecular target: T1, KRAS G12C 1-169, his-tagged protein, GDP-loaded (Homo sapiens, UniProt P01116, G12C); assay: Biochemical assay: covalent modification of KRAS G12C measured by mass spectrometry (RapidFire/TOF or Q-Exactive); format: binding; conditions: covalent binding to (modification of) KRAS G12C after a ten minute incubation period
T1 construct: KRAS G12C 1-169, his-tagged protein, GDP-loaded
Protocol: Test compounds were prepared as 10 mM stock solutions in DMSO (Fisher cat #BP-231-100). KRAS G12C 1-169, his-tagged protein, GDP-loaded is diluted to 2 μM or 0.5 μM in buffer (20 mM Hepes, 150 mM NaCl, 1 mM MgCl2). Compounds were tested for activity as follows:
Compounds were diluted to 50× final test concentration in DMSO in 96-well storage plates. Compound stock solutions were vortexed before use and observed carefully for any sign of precipitation. Dilutions are as follow: • For 100 μM final compound concentration, compounds were diluted to 5000 μM (5 μL 10 mM compound stock+5 μL DMSO and mixed well by pipetting. • For 30 μM final compound concentration, compounds were diluted to 1500 μM (3 μL 10 mM compound stock+17 μL DMSO) and mixed well by pipetting. • For 10 μM final compound concentration, compounds were diluted to 500 μM (2 μL 10 mM compound stock+38 μL DMSO) and mixed well by pipetting. 49 μL of the stock protein solution was added to each well of a 96-well PCR plate (Fisher cat #1423027). 1 μL of the diluted 50× compounds were added to appropriate wells in the PCR plate using 12-channel pipettor. Reactions were mixed carefully and thoroughly by pipetting up/down with a 200 μL multi-channel pipettor. The plate was sealed well with aluminum plate seal, and stored in drawer at room temperature for 10 minutes, 30 minutes, 2 hours or 24 hours. 5 μL of 2% formic acid (Fisher cat #A117) in de-ionized H2O was then added to each well followed by mixing with a pipette. The plate was then resealed with aluminum seal and stored on dry ice until analyzed as described below.
The above described assays were analyzed by mass spectrometry according to one of the following two procedures:
The MS instrument was set to positive polarity, 2 GHz resolution, and low mass (1700) mode and allowed to equilibrate for 30 minutes. The instrument was then calibrated, switched to acquisition mode and the appropriate method loaded.
After another 30 minute equilibration time, a blank batch (i.e., buffer) was run to ensure equipment is operating properly. The samples were thawed at 37° C. for 10 minutes, briefly centrifuged, and transfer to the bench top. Wells A1 and H12 were spiked with 1 μL 500 μM internal standard peptide, and the plates centrifuged at 2000×g for 5 minutes. The method was then run and masses of each individual well recorded.
The masses (for which integration data is desired) for each well were pasted into the platemap and exported from the analysis. Masses for the internal standards were exported as well. The data at 50 ppm was extracted for the +19 charge state, and identity of well A1 was assigned using the internal standard spike and integrated. Peak data was exported as a TOF list and the above steps were repeated individually, for the +20, 21, 22, 23, 24, and 25 charge states.
The masses and peak intensities of KRAS G12C protein species were measured using a Dionex RSLCnano system (Thermo Scientific) connected to a Q Exactive Plus mass spectrometer (Thermo Scientific).
[…] of sample was each loaded onto a Aeris™ 3.6 μm WIDEPORE C4 200 Å, LC Column 50×2.1 mm column maintained at 40° C. at a flow rate of 600 μL/min with 20% Solvent A (0.1% formic acid in H2O) and […] (0.1% formic acid in acetonitrile). The liquid chromatography conditions were 20% solvent B for 1 minute, 20% to 60% solvent B for 1.5 minutes, 60% to 90% solvent for 0.5 minute, 90% solvent B for 0.2 minute, 90% to 20% solvent B for 0.2 minute, and then equilibrated for 1.6 minutes before the following sample injection. The flow rate was maintained at 600 μL/min throughout the sample analysis.
The mass spectrometer was operated in profile mode at a resolution of 17500, 5 microscans, using 50 msec max injection time and an AGC target of 1×10^6, and a full mass range from 800-1850 m/z was recorded. The HCD trapping gas was optimized for maximum sensitivity for intact proteins. […]

| Structure (SMILES) | Binding % |
| --- | --- |
| C=CC(=O)N1C[C@H](C)N(c2nc(OCCN3CCOCC3)nc3c(F)c(-c4c(C)ccc5[nH]nc(C6CC6)c45)c(Cl)cc23)C[C@H]1C (atropisomer, axis not shown) [Compound 113, 1-((2R,5S)-4-((R)-6-chloro-7-(3-cyclopropyl-5-methyl-1H-indazol-4-yl)-8-fluoro-2-(2-morpholinoethoxy)quina-zolin-4-yl)-2,5-dimethylpiperazin-1-yl)prop-2-en-1-one] | ++ (++ indicates binding activity from 50 to 80%) |
| C=CC(=O)N1C[C@H](C)N(c2nc(OCCN3CCC(F)(F)C3)nc3c(F)c(-c4c(C)ccc5[nH]nc(C6CC6)c45)c(Cl)cc23)C[C@H]1C (atropisomer, axis not shown) [Compound 116, 1-((2R,5S)-4-((S)-6-chloro-7-(3-cyclopropyl-5-methyl-1H-indazol-4-yl)-2-(2-(3,3-difluoropyrrolidin-1-y)ethoxy)-8-fluoroquinazolin-4-yl)-2,5-dimethylpiperazin-1-yl)prop-2-en-1-one] | + (+ indicates binding activity greater than 0% and up to 50%) |
| C=CC(=O)N1C[C@H](C)N(c2nc(OCCN3CCC(F)(F)C3)nc3c(F)c(-c4c(C)ccc5[nH]nc(C6CC6)c45)c(Cl)cc23)C[C@H]1C (atropisomer, axis not shown) [Compound 117, 1-((2R,5S)-4-((R)-6-chloro-7-(3-cyclopropyl-5-methyl-1H-indazol-4-yl)-2-(2-(3,3-difluoropyrrolidin-1-yl)ethoxy)-8-fluoroquinazolin-4-yl)-2,5-dimethylpiperazin-1-yl)prop-2-en-1-one] | +++ (+++ indicates binding activity greater than 80%) |
| C=CC(=O)N1C[C@H](C)N(c2nc(OCCN3CC(F)(F)C3)nc3c(F)c(-c4c(C)ccc5[nH]nc(C6CC6)c45)c(Cl)cc23)C[C@H]1C (atropisomer, axis not shown) [Compound 121, 1-((2R,5S)-4-((S)-6-chloro-7-(3-cyclopropyl-5-methyl-1H-indazol-4-yl)-2-(2-(3,3-difluoroazetidin-1-yl)ethoxy)-8-fluoroquinazolin-4-yl)-2,5-dimethylpiperazin-1-yl)prop-2-en-1-one] | + (+ indicates binding activity greater than 0% and up to 50%) |
| C=CC(=O)N1C[C@H](C)N(c2nc(OCCN3CC(F)(F)C3)nc3c(F)c(-c4c(C)ccc5[nH]nc(C6CC6)c45)c(Cl)cc23)C[C@H]1C (atropisomer, axis not shown) [Compound 122, 1-((2R,5S)-4-((R)-6-chloro-7-(3-cyclopropyl-5-methyl-1H-indazol-4-yl)-2-(2-(3,3-difluoroazetidin-1-yl)ethoxy)-8-fluoroquinazolin-4-yl)-2,5-dimethylpiperazin-1-yl)prop-2-en-1-one] | +++ (+++ indicates binding activity greater than 80%) |
| C=CC(=O)N1C[C@H](C)N(c2nc(N3CC(N(C)C)C3)nc3c(F)c(-c4c(C)ccc5cnn(C)c45)c(Cl)cc23)C[C@H]1C (atropisomer, axis not shown) [Compound 131, 1-((2R,5S)-4-((S)-6-chloro-7-(1,6-dimethyl-1H-indazol-7-yl)-2-(3-(dimethylamino)azetidin-1-yl)-8-fluoroquinazolin-4-yl)-2,5-dimethylpiperazin-1-yl)prop-2-en-1-one] | + (+ indicates binding activity greater than 0% and up to 50%) |
| C=CC(=O)N1[C@H](C)CN(c2nc(N3CC(N(C)C)C3)nc3c(F)c(-c4c(C)ccc5[nH]nc(C6CC6)c45)c(Cl)cc23)C[C@@H]1C (atropisomer, axis not shown) [Compound 133, 1-((2S,6R)-4-((S)-6-chloro-7-(3-cyclopropyl-5-methyl-1H-indazol-4-yl)-2-(3-(dimethylamino)azetidin-1-yl)-8-fluoroquinazolin-4-yl)-2,6-dimethylpiperazin-1-yl)prop-2-en-1-one] | + (+ indicates binding activity greater than 0% and up to 50%) |
| C=CC(=O)N1[C@H](C)CN(c2nc(N3CC(N(C)C)C3)nc3c(F)c(-c4c(C)ccc5[nH]nc(C6CC6)c45)c(Cl)cc23)C[C@@H]1C (atropisomer, axis not shown) [Compound 134, 1-((2S,6R)-4-((R)-6-chloro-7-(3-cyclopropyl-5-methyl-1H-indazol-4-yl)-2-(3-(dimethylamino)azetidin-1-yl)-8-fluoroquinazolin-4-yl)-2,6-dimethylpiperazin-1-yl)prop-2-en-1-one] | +++ (+++ indicates binding activity greater than 80%) |
| C=CC(=O)N1C[C@H](C)N(c2nc(OCCN3CCC(F)(F)C3)nc3c(F)c(-c4c(C)ccc5cnn(C)c45)c(Cl)cc23)C[C@H]1C (atropisomer, axis not shown) [Compound 135, 1-((2R,5S)-4-((S)-6-chloro-2-(2-(3,3-difluoropyrrolidin-1-yl)ethoxy)-7-(1,6-dimethyl-1H-indazol-7-yl)-8-fluoroquinazolin-4-yl)-2,5-dimethylpiperazin-1-yl)prop-2-en-1-one] | + (+ indicates binding activity greater than 0% and up to 50%) |
| C=CC(=O)N1C[C@H](C)N(c2nc(OCCN3CCC(F)(F)C3)nc3c(F)c(-c4c(C)ccc5cnn(C)c45)c(Cl)cc23)C[C@H]1C (atropisomer, axis not shown) [Compound 136, 1-((2R,5S)-4-((R)-6-chloro-2-(2-(3,3-difluoropyrrolidin-1-yl)ethoxy)-7-(1,6-dimethyl-1H-indazol-7-yl)-8-fluoroquinazolin-4-yl)-2,5-dimethylpiperazin-1-yl)prop-2-en-1-one] | +++ (+++ indicates binding activity greater than 80%) |
| C=CC(=O)N1C[C@H](C)N(c2nc(N3CC(NC)C3)nc3c(F)c(-c4c(C)ccc5cnn(C)c45)c(Cl)cc23)C[C@H]1C (atropisomer, axis not shown) [Compound 139, 1-((2R,5S)-4-((S)-6-chloro-7-(1,6-dimethyl-1H-indazol-7-yl)-8-fluoro-2-(3-(methylamino)azetidin-1-yl)quinazolin-4-yl)-2,5-dimethylpiperazin-1-yl)prop-2-en-1-one] | + (+ indicates binding activity greater than 0% and up to 50%) |
| C=CC(=O)N1[C@H](C)CN(c2nc(N3CC(N(C)C)C3)nc3c(F)c(-c4c(C)ccc5cnn(C)c45)c(Cl)cc23)C[C@@H]1C (atropisomer, axis not shown) [Compound 141, 1-((2S,6R)-4-((S)-6-chloro-7-(1,6-dimethyl-1H-indazol-7-yl)-2-(3-(dimethylamino)azetidin-1-yl)-8-fluoroquinazolin-4-yl)-2,6-dimethylpiperazin-1-yl)propan-2-en-1-one] | + (+ indicates binding activity greater than 0% and up to 50%) |
| C=CC(=O)N1[C@H](C)CN(c2nc(N3CC(N(C)C)C3)nc3c(F)c(-c4c(C)ccc5cnn(C)c45)c(Cl)cc23)C[C@@H]1C (atropisomer, axis not shown) [Compound 142, 1-((2S,6R)-4-((R)-6-chloro-7-(1,6-dimethyl-1H-indazol-7-yl)-2-(3-(dimethylamino)azetidin-1-yl)-8-fluoroquinazolin-4-yl)-2,6-dimethylpiperazin-1-yl)prop-2-en-1-one] | +++ (+++ indicates binding activity greater than 80%) |
| C=CC(=O)N1CCN(c2nc(N3CC(N(C)C)C3)nc3c(F)c(-c4c(C)ccc5cnn(C)c45)c(Cl)cc23)C[C@H]1C (atropisomer, axis not shown) [Compound 143, 1-((R)-4-((S)-6-chloro-7-(1,6-dimethyl-1H-indazol-7-yl)-2-(3-(dimethylamino)azetidin-1-yl)-8-fluoroquinazolin-4-yl)-2-methylpiperazin-1-yl)prop-2-en-1-one] | + (+ indicates binding activity greater than 0% and up to 50%) |
